The values that follow are results of earlier work, collected in patent publication US20210205361A1, “COMPOSITIONS AND METHODS FOR CANCER IMMUNOTHERAPY” (priority 2016, published 2021).

Data set [1] deals with diffuse large B-cell lymphoma (DLBCL).
Data set [2] relates to recurrent multifocal GBM. Particulars: two pediatric patients refractory to standard therapies.
In data set [3] the test system is advanced, treatment-refractory malignancies. The settings on record: subjects with non-small cell lung cancer (NSCLC).

“CT-011: humanized IgG1 monoclonal antibody against PD-1”: the “subjects progression-free at the end of the follow-up period” value in data set [1] (DLBCL subjects after autologous stem cell transplantation, control group 47%) is 70%. Moreover, in data set [1] (DLBCL subjects after autologous stem cell transplantation, control group 62%), the subjects alive is given as 82%. For the same substance, in data set [1] (finding of the phase II trial), the “activity of natural killer cells” value is “augments”. Take “nivolumab: immune checkpoint inhibitor, anti-PD1 antibody”: in data set [2], the response result was “remarkable and durable responses”. As for “BMS-936558: fully human IgG4 monoclonal antibody targeting PD-1”, the clinical activity entry in data set [3] is given as “substantial clinical activity”.
